From publication PMC2072912 (Purinergic Signalling, 2007)
Where two headings read alike, the source gives them in different places.

Tests used:
[1] = test system: Achromobacter xylosoxidans (intact bacteria); assay: [3H]adenine competition binding, intact bacteria; details: for activity at Achromobacter binding sites: A. xylosoxidans binding studies
rat adenine receptor [2] = target: T1, rat adenine receptor (Rattus norvegicus, UniProt Q7TN49); details: read-out: IC50 previously determined for the rat adenine receptor; cited from earlier work
T1 sequence (Q7TN49 1-304): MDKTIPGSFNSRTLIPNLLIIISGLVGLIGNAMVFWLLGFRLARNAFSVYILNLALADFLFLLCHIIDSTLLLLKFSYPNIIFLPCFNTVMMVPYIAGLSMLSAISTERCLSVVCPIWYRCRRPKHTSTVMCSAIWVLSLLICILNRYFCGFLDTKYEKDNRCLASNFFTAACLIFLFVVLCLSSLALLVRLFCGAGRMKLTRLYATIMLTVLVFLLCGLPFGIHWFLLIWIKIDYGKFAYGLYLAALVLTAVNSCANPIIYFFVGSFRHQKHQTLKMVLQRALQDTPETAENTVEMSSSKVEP

rat adenine receptor [3] = target: T1, rat adenine receptor; details: read-out: IC50 previously determined for the rat adenine receptor; cited from earlier work; remark: listed apart in the source
[4] = target: A. xylosoxidans membrane preparations; assay: [3H]adenine homologous competition, bacterial membrane preparations; format: binding, Achromobacter xylosoxidans; details: estimated from homologous competition, n = 3
[5] = test system: A. denitrificans membrane preparations; assay: as above; set-up: species or system Achromobacter denitrificans; details: read-out: binding affinity (IC50)
[6] = test system: A. lwoffii membrane preparations; assay: as above; format: binding, Acinetobacter lwoffii
[7] = target: A. denitrificans (intact bacteria); assay: [3H]adenine competition binding, intact bacteria; set-up: species or system Achromobacter denitrificans; details: read-out: binding affinity (IC50); A. denitrificans intact cells
[8] = target: A. lwoffii (intact bacteria); assay: [3H]adenine competition binding, intact bacteria; set-up: species or system Acinetobacter lwoffii; details: read-out: binding affinity (IC50); A. lwoffii intact cells
mouse adenine receptor = details: cited from earlier work
[9] = test system: microbial contaminations in Tris-HCl buffer; assay: Radioligand binding to stored; details: no added protein
Saccharomyces cerevisiae = assay: [3H]adenine binding to yeast control organism; details: data not shown

Nc1nc(N)c2[nH]cnc2n1 [2,6-Diaminopurine]
activity at Achromobacter binding sites [1]: completely inactive

Nc1nc(O)nc2nc[nH]c12 [2-Hydroxyadenine]
activity at Achromobacter binding sites [1]: completely inactive

C[C@H]1O[C@@H](n2cnc3c(N)ncnc32)[C@H](O)[C@@H]1O [5′-deoxyadenosine]
IC50 (rat adenine receptor [2]): 823 nM

CCn1cnc2ncnc(N)c21 [7-ethyladenine]
IC50 (rat adenine receptor [3]): 47300 nM

Nc1ncnc2nc(Br)[nH]c12 [8-bromoadenine]
IC50 (rat adenine receptor [3]): 17300 nM

Nc1ncnc2nc[nH]c12 [Adenine]
Kd ([1]; estimated from homologous competition, intact bacteria, n = 8): 11 ± 1.2 nM
IC50 ([1]; read-out: IC50 value for the A. xylosoxidans binding site, intact bacteria, versus 10 nM [3H]adenine): 13 nM
Kd [4]: 5.84 ± 1.12 nM
IC50 [5]: 2400 nM
IC50 ([6]; contaminant 3 membrane preparation, versus 10 nM [3H]adenine, n = 1): 2350 nM
IC50 ([6]; read-out: binding affinity (IC50), A. lwoffii membrane preparations): 1000 nM
IC50 [7]: 253 nM
IC50 [8]: 299 nM
IC50 (rat adenine receptor [3]): 29.9 nM
affinity for the mouse adenine receptor (mouse adenine receptor): 54.9 nM

Nc1ncnc2c1ncn2[C@@H]1O[C@H](CO)[C@@H](O)[C@H]1O [Adenosine]
activity at Achromobacter binding sites [1]: completely inactive

[3H]c1nc2ncnc(N)c2[nH]1 [[^3H]adenine, [8-^3H]Adenine]
specific [3H]adenine binding ([9]; buffer stored 2 weeks at 4°C): 562 ± 19 cpm
specific [3H]adenine binding ([9]; buffer stored 6 weeks at 4°C): approximately 7,000 cpm
[3H]adenine binding (Saccharomyces cerevisiae): no [^3H]adenine binding
